Holding throughout (format): toxicity, cell-based
For data set [1], the system named is HEK-293T. Description: Incucyte cell viability with HEK293T. The note with it: human, 10 µM, compound concentration 10 uM.
In data set [2] the test system is Fibroblast. Description: Incucyte cell viability with human fibroblast. The note with it: 10 µM, compound concentration 10 uM.
The subject of data set [3] is U2OS. Description: Incucyte cell viability with U2OS. The note with it: human, 10 µM, compound concentration 10 uM.
Also: unitless GR value; below 1 slowed growth and below 0 cell loss.

As for `COCCNC1CCC(Nc2cc(-c3csc(NCC4(C#N)CCOCC4)n3)c(Cl)cn2)CC1` (centres undefined), the “Growth Rate” value in data set [1] (0 h, replicate number 1) is -0.55; in data set [1] (0 h, replicate number 2), 0.97; in data set [1] (6 h, replicate number 1) it was -0.19; in data set [1] (6 h, replicate number 2), -0.42; in data set [1] (12 h, replicate number 1), -0.33; in data set [1] (12 h, replicate number 2), -0.48. Further, the “Growth Rate” value in data set [1] (18 h, replicate number 1) is given as -0.33; in data set [1] (18 h, replicate number 2), -0.43; in data set [1] (24 h, replicate number 1), -0.24; in data set [1] (24 h, replicate number 2) it was -0.35; in data set [2] (0 h, replicate number 1), -1; in data set [2] (6 h, replicate number 1) it was 0.99. Moreover, the “Growth Rate” value in data set [2] (12 h, replicate number 1) is on record as 0.4; in data set [2] (12 h, replicate number 2), 0.24; in data set [2] (18 h, replicate number 1) it was 0.16; in data set [2] (18 h, replicate number 2), -0.14; in data set [2] (24 h, replicate number 1) it was 0.14; in data set [2] (24 h, replicate number 2), -0.16. Moreover, the “Growth Rate” value is given as -1 in data set [3] (0 h, replicate number 1); 0.51 in data set [3] (6 h, replicate number 2); 0.08 in data set [3] (12 h, replicate number 2); -0.21 in data set [3] (18 h, replicate number 1); 0.04 in data set [3] (18 h, replicate number 2); -0.03 in data set [3] (24 h, replicate number 2).
As to `C=CC(=O)Nc1cc(Nc2nccc(-n3cc(CN(C)C)c(-c4ccccc4)n3)n2)c(OC)cc1N1CCOCC1` [LAZERTINIB], the “Growth Rate” value is reported as 0.8 in data set [1] (0 h, replicate number 2); 0.45 in data set [1] (6 h, replicate number 1); 0.27 in data set [2] (6 h, replicate number 1); -0.96 in data set [2] (6 h, replicate number 2); -1 in data set [2] (12 h, replicate number 1); 0.67 in data set [2] (12 h, replicate number 2). The “Growth Rate” value is given as 0.86 in data set [2] (24 h, replicate number 2); -0.99 in data set [3] (0 h, replicate number 2); -0.48 in data set [3] (6 h, replicate number 1); 0.77 in data set [3] (6 h, replicate number 2); 0.19 in data set [3] (12 h, replicate number 1); 0.92 in data set [3] (12 h, replicate number 2). In addition, the “Growth Rate” value in data set [3] (18 h, replicate number 1) is on record as 0.4; in data set [3] (18 h, replicate number 2), 0.96; in data set [3] (24 h, replicate number 1), 0.78; in data set [3] (24 h, replicate number 2), 0.91.
Turning to `Cl.Cl.O=[N+]([O-])c1ccc(CN2CCOCCOCCN(Cc3ccc([N+](=O)[O-])cc3)CCOCC2)cc1`, the “Growth Rate” value was -0.5 in data set [1] (6 h, replicate number 1); -0.29 in data set [1] (6 h, replicate number 2); 0.04 in data set [1] (12 h, replicate number 1); 0.2 in data set [1] (12 h, replicate number 2); 0.13 in data set [1] (18 h, replicate number 1); 0.39 in data set [1] (18 h, replicate number 2). The “Growth Rate” value in data set [1] (24 h, replicate number 1) is listed as 0.2; in data set [1] (24 h, replicate number 2) it was 0.52; in data set [2] (0 h, replicate number 1), 0.74; in data set [2] (6 h, replicate number 2), -0.71; in data set [2] (12 h, replicate number 1), -0.95; in data set [2] (12 h, replicate number 2) it was 0.3. Besides, the “Growth Rate” value in data set [2] (18 h, replicate number 1) is reported as -0.4; in data set [2] (18 h, replicate number 2), 0.63; in data set [2] (24 h, replicate number 1) it was -0.06; in data set [2] (24 h, replicate number 2) it was 0.84; in data set [3] (6 h, replicate number 1), -0.05; in data set [3] (6 h, replicate number 2) it was 0.19. Besides, the “Growth Rate” value in data set [3] (12 h, replicate number 1) is on record as 0.28; in data set [3] (12 h, replicate number 2) it was 0.21; in data set [3] (18 h, replicate number 1) it was 0.69; in data set [3] (18 h, replicate number 2), 0.56; in data set [3] (24 h, replicate number 1), 0.67; in data set [3] (24 h, replicate number 2), 0.76.
In the case of `COc1ccc(COc2ccc(Cc3cnc(N)nc3N)cc2OC)cc1` [GW632580X], the “Growth Rate” value in data set [1] (6 h, replicate number 1) stood at 0.7; in data set [1] (12 h, replicate number 1) it was 0.83; in data set [1] (12 h, replicate number 2), 0.92; in data set [1] (18 h, replicate number 1), 0.93; in data set [1] (18 h, replicate number 2), 0.87; in data set [1] (24 h, replicate number 1), 0.91. For the same compound, the “Growth Rate” value is on record as 0.92 in data set [1] (24 h, replicate number 2); -0.61 in data set [2] (0 h, replicate number 2); 0.69 in data set [2] (6 h, replicate number 1); 0.45 in data set [2] (6 h, replicate number 2); 0.73 in data set [2] (12 h, replicate number 1); 0.22 in data set [2] (12 h, replicate number 2). Moreover, the “Growth Rate” value in data set [2] (18 h, replicate number 1) is listed as 0.86; in data set [2] (18 h, replicate number 2), 0.48; in data set [2] (24 h, replicate number 1), 0.78; in data set [2] (24 h, replicate number 2), 0.57; in data set [3] (0 h, replicate number 2), 0.63; in data set [3] (6 h, replicate number 1) it was 0.52. In addition, the “Growth Rate” value turned out to be 0.7 in data set [3] (12 h, replicate number 1); 0.63 in data set [3] (18 h, replicate number 1); 0.89 in data set [3] (24 h, replicate number 1).
On to `Cl.O=C(O)CCCN1CCC[C@H]1COc1ccc(Oc2ccc(Cl)cc2)cc1`, for which the “Growth Rate” value is 0.64 in data set [1] (6 h, replicate number 1); -0.09 in data set [1] (6 h, replicate number 2); 0.9 in data set [1] (12 h, replicate number 1); 0.12 in data set [1] (12 h, replicate number 2); 0.37 in data set [1] (18 h, replicate number 2); 0.98 in data set [1] (24 h, replicate number 1). Moreover, the “Growth Rate” value in data set [1] (24 h, replicate number 2) is listed as 0.53; in data set [2] (0 h, replicate number 1), -1; in data set [2] (6 h, replicate number 1), 0.91; in data set [2] (12 h, replicate number 2), 0.93; in data set [2] (18 h, replicate number 1), 0.87; in data set [3] (6 h, replicate number 1), 0.84. In data set [3] (24 h, replicate number 1), the “Growth Rate” value was found to be 0.94.
With `COc1cc(-c2cncc(-c3ccc(N4CCN(C(C)C)CC4)cc3)c2C)cc(F)c1C(=O)N1CCCC1`, the “Growth Rate” value in data set [1] (0 h, replicate number 1) was -0.5; in data set [1] (0 h, replicate number 2) it was -0.2; in data set [1] (24 h, replicate number 2), 0.92; in data set [2] (0 h, replicate number 1) it was -0.08; in data set [2] (0 h, replicate number 2), 0.49; in data set [2] (6 h, replicate number 2) it was -0.22. Besides, the “Growth Rate” value came to 0.11 in data set [2] (12 h, replicate number 2); 0.73 in data set [2] (18 h, replicate number 1); 0.27 in data set [2] (18 h, replicate number 2); 0.76 in data set [2] (24 h, replicate number 1); 0.4 in data set [2] (24 h, replicate number 2); 1 in data set [3] (12 h, replicate number 2). For the same compound, the “Growth Rate” value in data set [3] (18 h, replicate number 2) is 0.99; in data set [3] (24 h, replicate number 2), 0.89.
As for `COc1cc(N[C@@H]2CCCC[C@]2(O)C(F)(F)F)ccc1F` [BAY-9897], the “Growth Rate” value in data set [1] (0 h, replicate number 1) was 0.51; in data set [1] (0 h, replicate number 2) it was 0.5; in data set [1] (6 h, replicate number 2) it was 0.88; in data set [1] (12 h, replicate number 2) it was 0.88; in data set [2] (12 h, replicate number 1), 0.82; in data set [3] (0 h, replicate number 1) it was -0.16. Besides, the “Growth Rate” value in data set [3] (6 h, replicate number 1) worked out at 0.53; in data set [3] (12 h, replicate number 1), 0.68; in data set [3] (18 h, replicate number 1) it was 0.78; in data set [3] (18 h, replicate number 2), 0.96; in data set [3] (24 h, replicate number 1), 0.88; in data set [3] (24 h, replicate number 2), 0.77.
For the compound `Cc1ccc(-c2cn3nc(C(=O)NC4(c5ccc(F)cc5)CN(C)C4)c(C(C)C)c3c(=O)[nH]2)cc1C`, the “Growth Rate” value in data set [1] (12 h, replicate number 1) is given as 0.66; in data set [1] (18 h, replicate number 1), 0.19; in data set [1] (18 h, replicate number 2) it was 0.21; in data set [1] (24 h, replicate number 1) it was 0.07; in data set [1] (24 h, replicate number 2), 0.09; in data set [2] (0 h, replicate number 1), -1. The “Growth Rate” value in data set [2] (6 h, replicate number 2) is recorded as 0.39; in data set [2] (12 h, replicate number 1) it was 0.22; in data set [2] (12 h, replicate number 2), 0.19; in data set [2] (18 h, replicate number 1), 0.16; in data set [2] (18 h, replicate number 2), 0.26; in data set [2] (24 h, replicate number 1) it was 0.16. Also, the “Growth Rate” value is reported as 0.27 in data set [2] (24 h, replicate number 2); 0.98 in data set [3] (6 h, replicate number 1); 0.9 in data set [3] (12 h, replicate number 1); 0.86 in data set [3] (12 h, replicate number 2); 0.59 in data set [3] (18 h, replicate number 1); 0.74 in data set [3] (18 h, replicate number 2). Moreover, the “Growth Rate” value in data set [3] (24 h, replicate number 1) came out at 0.31; in data set [3] (24 h, replicate number 2), 0.61.
As for `CCN(C)S(=O)(=O)Nc1cccc(-c2ccc3c(NC(=O)C4CC4)n[nH]c3c2)c1`, the “Growth Rate” value in data set [1] (6 h, replicate number 1) is -0.21; in data set [1] (6 h, replicate number 2) it was -0.69; in data set [1] (12 h, replicate number 1) it was -0.1; in data set [1] (12 h, replicate number 2), -0.46; in data set [1] (18 h, replicate number 1), -0.03; in data set [1] (18 h, replicate number 2), -0.33. Further, the “Growth Rate” value in data set [1] (24 h, replicate number 1) was 0; in data set [1] (24 h, replicate number 2), -0.21; in data set [2] (6 h, replicate number 1), -0.58; in data set [2] (6 h, replicate number 2), -0.37; in data set [2] (12 h, replicate number 1), -0.17; in data set [2] (12 h, replicate number 2), -0.25. Also, the “Growth Rate” value in data set [2] (18 h, replicate number 1) is -0.01; in data set [2] (18 h, replicate number 2), -0.16; in data set [2] (24 h, replicate number 1), 0.13; in data set [2] (24 h, replicate number 2) it was -0.03; in data set [3] (0 h, replicate number 2), -0.42; in data set [3] (6 h, replicate number 1) it was -0.66. Moreover, the “Growth Rate” value in data set [3] (6 h, replicate number 2) is given as -0.06; in data set [3] (12 h, replicate number 1) it was -0.32; in data set [3] (12 h, replicate number 2) it was 0.08; in data set [3] (18 h, replicate number 1) it was -0.12; in data set [3] (18 h, replicate number 2), 0.1; in data set [3] (24 h, replicate number 1) it was 0.11. The “Growth Rate” value in data set [3] (24 h, replicate number 2) was 0.17.
Take `COc1ccc(C(F)(F)F)cc1NC(=O)Nc1ccc(Oc2cc(C)nc(N)n2)c2ccccc12`: the “Growth Rate” value is reported as -0.09 in data set [1] (0 h, replicate number 2); 0.58 in data set [1] (6 h, replicate number 1); 0.67 in data set [1] (12 h, replicate number 1); 0.92 in data set [1] (12 h, replicate number 2); 0.55 in data set [1] (18 h, replicate number 1); 0.87 in data set [1] (18 h, replicate number 2). Also, the “Growth Rate” value is given as 0.6 in data set [1] (24 h, replicate number 1); 0.81 in data set [1] (24 h, replicate number 2); -1 in data set [2] (0 h, replicate number 1); -0.09 in data set [2] (0 h, replicate number 2); 0.32 in data set [2] (6 h, replicate number 2); 0.87 in data set [2] (12 h, replicate number 2). The “Growth Rate” value in data set [2] (18 h, replicate number 2) is reported as 0.85; in data set [2] (24 h, replicate number 2), 0.89; in data set [3] (0 h, replicate number 1), -1.

The record behind these values is ChEMBL document CHEMBL5303304, “EUbOPEN Chemogenomics Library - IncuCyte” (2023).
